From patent publication US9192161B2, “Fungicidal combinations comprising a dithiino-tetracarboxamide fungicide” (BAYER INTELLECTUAL PROPERTY GMBH, priority 2011, dated 2015)

System: Venturia inaequalis
Experiment: Venturia test (apples)/preventive
Assay type: in vivo, Venturia inaequalis on apples
Settings: preventive spray on young apple plants, evaluated 10 days after inoculation
Description: Venturia Test (Apples)/Preventive
• Solvent: 24.5 parts by weight of acetone • 24.5 parts by weight of dimethylacetamide • Emulsifier: 1 part by weight of alkylaryl polyglycol ether
To produce a suitable preparation of active compound, 1 part by weight of active compound is mixed with the stated amounts of solvent and emulsifier, and the concentrate is diluted with water to the desired concentration. To test for preventive activity, young plants are sprayed with the preparation of active compound at the stated rate of application. After the spray coating has dried on, the plants are inoculated with an aqueous conidia suspension of the causal agent of apple scab (Venturia inaequalis) and then remain for 1 day in an incubation cabinet at approximately 20° C. and a relative atmospheric humidity of 100%. The plants are then placed in a greenhouse at approximately 21° C. and a relative atmospheric humidity of approximately 90%. The test is evaluated 10 days after the inoculation. 0% means an efficacy which corresponds to that of the untreated control, while an efficacy of 100% means that no disease is observed.

Row | SMILES | Efficacy in % found (0.4 ppm a.i.) [%] | Efficacy in % found (20 ppm a.i.) [%] | Efficacy in % found (40 ppm a.i.) [%]
1 | COC(c1ccc(Cl)cc1Cl)C(C)NC(=O)c1cn(C)nc1C(F)F (stereo not drawn) [(10), 3-(difluoromethyl)-1-methyl-1H-pyrazole-4-carboxylic acid [2-(2,4-dichlorophenyl)-2-methoxy-1-methyl-ethyl]-amide] | 18 | – | –
2 | Cn1c(=O)c2sc3c(=O)n(C)c(=O)c3sc2c1=O [(I-1), 2,6-dimethyl-1H,5H-[1,4]dithiino[2,3-c:5,6-c′]dipyrrole-1,3,5,7(2H,6H)-tetrone] | – | 46 | 65
